Measured values as given in patent publication US6676932B2, “Ultraviolet absorbent, photostabilizer, ultraviolet ray-absorbing composition, photostabilized composition and external preparation for skin” (Shiseido Co., Ltd., priority 2001, dated 2004).

Key:
skin [1] = assay: Test of skin irritation: continuous application test (Test Example 3 i); type: in vivo, human; details: 10 wt % ultraviolet absorbent, twice daily for 4 weeks
Experimental: (§1) The same samples as in the Test Example 2 were used (at a 10 wt % amount of an ultraviolet absorbent).
Continuous application test was carried out for 20 healthy subjects per one group. An appropriate amount of each of the samples was coated twice daily for 4 weeks. The effects were assessed according to the following assessment standards.
Mean score was calculated for the determination of the effect on the basis of the following standards.
(§2) ◯: mean score of more than 0 to less than 1.
(§3) Δ: mean score of 1 or more to less than 2.
(§4) x: mean score of 2 or more.

skin [2] = assay: Test of skin irritation: 24-hour occlusion patch test (Test Example 3 ii); type: in vivo, human; details: 10 wt % ultraviolet absorbent
Experimental: as §1
20 Healthy male and female volunteers per one group were carried out in a 24-hour occlusion patch test, using a fin chamber on forearm curves. Assessment was done on the basis of the following assessment standards.
Mean score was determined for the assessment on the basis of the following standards.
as §2, §3, §4

[3] = Dye stabilization effect under daylight exposure (Test Examples 6-91); type: physicochemical; parameters: key to Δ E: color difference ΔE in Lab vs. color before daylight exposure; key to Appearance (visual determination): ◯: no change; Δ: almost no change; x: change; details: photostabilizer 0.05 wt %, daylight exposure (80 MJ)
Method in brief: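 Test samples exposed to daylight to 80 MJ; appearance judged visually. Colour measured by spectrophotometer in Lab coordinates, with ΔE calculated relative to pre-exposure values (L1, a1, b1).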

[4] = Stabilization effect on perfume under daylight exposure (Test Examples 92 to 181); type: physicochemical; parameters: key: ◯: no change; Δ: almost no change; x: change; details: daylight exposure (80 MJ)
Experimental: Each test sample was prepared for observation of the change of the odor of the test sample (determined by perfume coordinator) before and after daylight exposure (80 MJ).

[5] = Drug stabilization effect under daylight exposure (Test Examples 182 to 211); type: physicochemical; parameters: key to Appearance (visual determination): ◯: no change; Δ: almost no change; x: change; details: drug salicylic acid 0.1 wt %, photostabilizer 0.05 wt %, daylight exposure (80 MJ)
Experimental: For observation of the change of the appearance of each test sample (determination based on visual observation) and the measurement of the remaining ratio by liquid chromatography before and after daylight exposure (80 MJ), the test sample was prepared.

[6] = Stability test in combination with inorganic powder-based ultraviolet shielding agent, sunscreen cream (Test Example 5); type: physicochemical; details: sunscreen cream with inorganic powders; ultraviolet absorbent 10.0 wt %; 50° C. for 2 months; visual observation
Experimental: A sunscreen cream of the following formulation was prepared and stored at 50° C. for 2 months. Under visual observation of the color change, the stability of the inventive pyridazine derivative in combination with inorganic powder-based ultraviolet screening agents commonly in blend as external preparations for skin for the purpose of ultraviolet prevention was examined.
After the ingredient 2 was added to the ingredient 1 to swell the ingredient 2, the ingredients 3 to 11 were mixed with the resulting mixture under heating, for sufficient dispersion and dissolution. While keeping the dispersion at 70° C., a solution of the mixture of the ingredients 12 to 15 was gradually added to the dispersion under thorough emulsification with a homomixer. The resulting mixture was cooled to 30° C. under sufficient stirring to prepare sunscreen creams.

sunburn = assay: Ultraviolet preventive effect, application test on beach in summer (Test Example 2); type: in vivo, human
Experimental: An application test was carried out on beach in summer. Equal volumes of samples were individually coated on back halves of subjects. After exposure to direct daylight, the degree of sunburn was assessed according to the following assessment standards. Each group consists of 10 subjects.
Prominently effective: none or almost no sunburn symptom was observed.
Effective: light sunburn symptom was observed.
Ineffective: strong sunburn symptom was observed.
⊚: prominently effective or effective for 80% or more of the subjects.
◯: prominently effective or effective for 50% or more to less than 80% of the subjects.
Δ: prominently effective or effective for 30% or more to less than 50% of the subjects.
x: prominently effective or effective for less than 30% of the subjects.
The aqueous phase and the alcohol phase were separately prepared and then mixed together.
Propylene glycol was added to and dissolved in ion exchange water. The resulting solution was retained at 70° C. under heating (aqueous phase). Other ingredients were mixed […]. The resulting mixture was melted under heating and retained at 70° C. (oil phase). The oil phase was added to the aqueous phase, for preliminary emulsification with a homomixer to homogeneity. Under thorough mixing, subsequently, the mixture was cooled to 30° C.

[7] = Photostability test of aqueous solutions under daylight (Test Example 4); type: physicochemical; details: aqueous solution, daylight for 2 weeks (80 MJ)
Experimental: Aqueous solutions of the pyridazine derivative of the invention were exposed to daylight for 2 weeks (at a daylight exposure of 80 MJ). Subsequently, the remaining ratio and the change of the appearance were examined to measure the ultraviolet spectra with a spectrophotometer (solvent: water; concentration of 10 ppm and optical path length of 1 cm). The area under ultraviolet spectra curve from 290 nm to 400 nm were determined by integration to compare the area with the area before daylight exposure.
The remaining ratio and the change of the area under the ultraviolet spectrum were determined on the basis of the following standards.
⊚: 95% or more of those before daylight exposure.
◯: 90% or more to less than 95% of those before daylight exposure.
Δ: 70% or more to less than 90% of those before daylight exposure.
x: less than 70% of those before daylight exposure.

[8] = dye Blue 1 (Brilliant Blue FCF) 0.0001 wt %
[9] = dye Green 3 (Fast Green FCF) 0.001 wt %
[10] = dye Red 227 (Acid Fuchsine D) 0.0001 wt %
[11] = dye Yellow 5 (Sunset Yellow FCF) 0.001 wt %
[12] = dyes Red 227 (Acid Fuchsine D) 0.0001 + Yellow 5 (Sunset Yellow FCF) 0.0001 wt %

Oc1nnccc1N1CCCCC1 [3-Hydroxy-4-piperidinopyridazine, 3-hydroxy-4-piperidinopyridazine]
Determination (skin reaction, continuous application test) (skin [1]; cream): ⊚ (mean score of 0) | Determination (skin reaction, continuous application test) (skin [1]; lotion): ⊚ (mean score of 0) | Determination (skin reaction, patch test) (skin [2]; cream): ⊚ (mean score of 0) | Determination (skin reaction, patch test) (skin [2]; lotion): ⊚ (mean score of 0) | Appearance (visual determination) [3, 8]: ◯ | Δ E [3, 8]: 1.24 | Appearance (visual determination) [3, 9]: ◯ | Δ E [3, 9]: 0.46 | Appearance (visual determination) [3, 10]: ◯ | Δ E [3, 10]: 0.54 | Appearance (visual determination) [3, 11]: ◯ | Δ E [3, 11]: 0.58 | Appearance (visual determination) [3, 12]: ◯ | Δ E [3, 12]: 0.65 | odor determination ([4]; base perfume Rose, photostabilizer 0.05 wt %): ◯ | odor determination ([4]; base perfume Woody, photostabilizer 0.1 wt %): ◯ | odor determination ([4]; natural perfume Rose oil, photostabilizer 0.05 wt %): ◯ | Appearance (visual determination) [5]: ◯ | Remaining ratio (%) ([5]; liquid chromatography): 98.4% | Color change [6]: no | Ultraviolet prevention effect (sunburn; cream, blend amount 0.0005 wt %): Δ (prominently effective or effective for 30% or more to less than 50% of the subjects) | Ultraviolet prevention effect (sunburn; cream, blend amount 0.001 wt %): ◯ (prominently effective or effective for 50% or more to less than 80% of the subjects) | Ultraviolet prevention effect (sunburn; cream, blend amount 0.01 wt %): ⊚ (prominently effective or effective for 80% or more of the subjects) | Ultraviolet prevention effect (sunburn; cream, blend amount 1 wt %): ⊚ (prominently effective or effective for 80% or more of the subjects) | Ultraviolet prevention effect (sunburn; cream, blend amount 5 wt %): ⊚ (prominently effective or effective for 80% or more of the subjects) | Ultraviolet prevention effect (sunburn; cream, blend amount 10 wt %): ⊚ (prominently effective or effective for 80% or more of the subjects) | Ultraviolet prevention effect (sunburn; cream, blend amount 20 wt %): ⊚ (prominently effective or effective for 80% or more of the subjects) | Ultraviolet prevention effect (sunburn; lotion, blend amount 0.0005 wt %): Δ (prominently effective or effective for 30% or more to less than 50% of the subjects) | Ultraviolet prevention effect (sunburn; lotion, blend amount 0.001 wt %): ◯ (prominently effective or effective for 50% or more to less than 80% of the subjects) | Ultraviolet prevention effect (sunburn; lotion, blend amount 0.01 wt %): ⊚ (prominently effective or effective for 80% or more of the subjects) | Ultraviolet prevention effect (sunburn; lotion, blend amount 1 wt %): ⊚ (prominently effective or effective for 80% or more of the subjects) | Ultraviolet prevention effect (sunburn; lotion, blend amount 5 wt %): ⊚ (prominently effective or effective for 80% or more of the subjects) | Ultraviolet prevention effect (sunburn; lotion, blend amount 10 wt %): ⊚ (prominently effective or effective for 80% or more of the subjects) | Ultraviolet prevention effect (sunburn; lotion, blend amount 20 wt %): ⊚ (prominently effective or effective for 80% or more of the subjects) | Remaining ratio [7]: ⊚ (95% or more of those before daylight exposure) | Change of area under ultraviolet spectrum ([7]; 290 nm to 400 nm): ⊚ (95% or more of those before daylight exposure)
